Laboratory results as given in patent US20230233492A1, “PHARMACEUTICAL COMBINATION COMPRISING A BRAIN AMINOPEPTIDASE A INHIBITOR, A DIURETIC AND A BLOCKER OF THE SYSTEMIC RENIN-ANGIOTENSIN SYSTEM” (QUANTUM GENOMICS, priority 2020, published 2023).

Columns and labels:
[1] = test system: conscious hypertensive DOCA-salt rats; assay: Acute oral administration: MABP and HR recording in conscious freely moving DOCA-salt rats; assay type: in vivo, rat; conditions: single oral administration
Protocol: Male deoxycorticosterone acetate (DOCA)-salt rats weighing 250 to 350 g were purchased from Charles River Laboratories (L'Arbresle, France). Animals were randomly assigned in each group with allocation concealment, and blinding procedures were used with coding systemAnimal care and surgical procedures were performed according to the Directive 2010/63/EU. The project was submitted to the appropriate ethics committee and authorization was obtained: 30 CEEA No 59, reference number 01962.01. Animals were kept under artificial light (12 h light/12 h dark cycle) with ad libitum access to a standard diet and saline water (0.9% NaCl, 0.2% KCl).
Male DOCA-salt rats were anesthetized with 3% isoflurane (Iso-Vet®, Piramal, UK) for induction and 1.5-2% isoflurane for maintenance. A catheter (0.011″X.024″X.0065″) was inserted into the right femoral artery to monitor mean arterial blood pressure (MABP) and heart rate (HR). The catheters were tunneled subcutaneously to exit from the neck. Animals were allowed to recover from surgery for at least 48 h before MABP recording. Baseline MABP was recorded before drug administration during 30 minutes to 1 hour. One hour after the start of BP recording, firibastat (30 mg/kg), enalapril (5 or 10 mg/kg) and HCTZ (5 or 10 mg/kg) alone or in combination at different doses were administered to the conscious unrestrained rats by oral route. After compound administration, BP was monitored for 6 hours. MABP was calculated with the […] system (Phymep, Paris, France), consisting of a MatLab hardware unit and CHART software, running on a Macintosh computer. MABP and HR measurements were calculated by the BP signal.

[2] = test system: spontaneously hypertensive rats (SHRs); conditions: oral administrations, 15 to 150 mg/kg; cited from earlier work
[3] = test system: conscious hypertensive deoxycorticosterone acetate (DOCA) salt rats; conditions: oral administrations, 15 to 150 mg/kg; cited from earlier work
hypertensive patients = conditions: monotherapy; mild to moderate hypertensive patients and diverse high-risk hypertensive population; cited from earlier work

Compound: NS(=O)(=O)c1cc2c(cc1Cl)NCNS2(=O)=O [HCTZ, hydrochlorothiazide]
- change in BP ([1]; HCTZ 10 mg/kg alone): did not induce any significant change in BP

Compound: CCOC(=O)[C@H](CCc1ccccc1)N[C@@H](C)C(=O)N1CCC[C@H]1C(=O)O [enalapril]
- change in BP ([1]; enalapril 10 mg/kg alone): did not induce any significant change in BP

Compound: N[C@@H](CCS(=O)(=O)O)CSSC[C@@H](N)CCS(=O)(=O)O [firibastat, (3S,3S′) 4,4′-disulfanediylbis(3-aminobutane 1-sulfonic acid)]
- decrease in BP (change in MABP from baseline) ([1]; firibastat 30 mg/kg alone, 5 h post-dosing): −35.4±5.2 mmHg
- effect on BP [2]: dose-dependent decrease in BP
- effect on BP [3]: dose-dependent decrease in BP
- effect on BP (hypertensive patients): lower BP
